Patent US10799478B2, “Treatment of androgen deprivation therapy associated symptoms” (priority 2014, dated 2020)

System: male rats
Experiment: Male Fertility and Toxicokinetic Study in Rats
Format: in vivo, rat
Experimental: The purpose of this study is to determine the potential adverse effects in the reproductive process resulting from treatment of male rats prior to, and during, the mating period. This includes identification of functional reproductive effects in the male.
Male rats (20/group) are treated daily for 10 weeks prior to mating, throughout the 3-week mating period, and continuing through the day prior to euthanasia (for a total of 100 to 101 doses). Female rats are not treated. All animals are observed twice daily for moribundity and mortality. Clinical observations are recorded daily for male rats; body weights and food consumption are recorded for males twice weekly. All males are euthanized 1 day following the last dose administration. Spermatogenic endpoint evaluations conducted on all males include motility and morphology and epididymal sperm concentration. Testes, epididymis, prostate and seminal vesicle/coagulating gland/fluid from all males are weighed and retained. Testes, epididymis, prostate, seminal vesicles and coagulating glands from surviving males are examined microscopically. A laparohysterectomy is performed on Gestation Day 15 for each female with evidence of mating. An additional 3, 18, 18, and 18 males assigned to the toxicokinetic phase are given the compound at doses of 0, 3, 30, and 1000 mg/kg, respectively, and are sampled for toxicokinetic evaluation at appropriate intervals following dose administration on Study Days 0 and 70.

Structure (SMILES): CC(C)OC(=O)N[C@H]1Cc2c(n(Cc3ccccn3)c3ccc(C#N)cc23)C1 (single isomer, unassigned) [Example 1]
- mating, fertility, and copulation indices (1000 mg/kg group males): lower
- increase of mean exposure (AUC0-24 hr) between 3 and 30 mg/kg (Day 0): approximately 7.8 fold
- increase of mean exposure (AUC0-24 hr) between 3 and 30 mg/kg (Day 70): ~4.5 fold
- Mean body weights, body weight gains, and food consumption (all dosage levels): unaffected
- Intrauterine survival of the embryos (males dosed 3, 30, 1000 mg/kg): unaffected
